Assay results taken from patent publication US10646440B2, “Sanguisorbigenin polymer micelle and preparative methods thereof” (SICHUAN INLU WEITE PHARMACEUTICAL TECHNOLOGY CO., LTD., priority 2016, dated 2020).

Tested on: KM-mice given cyclophosphamide (bone marrow suppression)
Assay: Pharmacodynamic experiment: cyclophosphamide-induced bone marrow suppression, peripheral blood counts
Type: in vivo
[1] = cyclophosphamide 120 mg/kg i.p. day 1, 2.5 mg/kg for 6 days, blood on day 7, mean ± s

SMILES: CC1CC[C@]2(C(=O)O)CC[C@]3(C)C(=CCC4[C@@]5(C)CCC(O)C(C)(C)C5CC[C@]43C)C2[C@]1(C)O (stereo partly drawn) [Sanguisorbigenin, 3β,19β-dihydroxyurs-12-en-28-oic acid]
- numbers of NEUT and HGB in peripheral blood compared with model group (2.5 mg/kg, P<0.05): did not show significant difference
- numbers of WBC, RBC, and PLT in peripheral blood compared with model group (2.5 mg/kg, P<0.05): did not show significant difference
- HGB in peripheral blood [1]: 45.47 ± 8.39 ^ g/L
- NEUT in peripheral blood [1]: 2.56 ± 0.13 ×10^9
- PLT in peripheral blood [1]: 231.16 ± 15.27 ×10^9
- RBC in peripheral blood [1]: 3.15 ± 0.19 ×10^12
- WBC in peripheral blood [1]: 2.79 ± 0.26 ×10^9
